From US7416848B2, “DNA encoding SNORF25 receptor” (H. Lundbeck A/S, priority 1999, dated 2008)

Tests used:
SNORF25 = target: T1, SNORF25 (Homo sapiens, UniProt Q8TDV5); test: Cl- currents via phospholipase C pathway in SNORF25 oocytes; assay type: cell-based; set-up: from linearized plasmids or PCR products containing the complete coding region of the genes; expressed in transfected cells; host or cells: Xenopus laevis oocytes injected with SNORF25 mRNA (with or without CFTR mRNA)
T1 sequence (Q8TDV5 1-335): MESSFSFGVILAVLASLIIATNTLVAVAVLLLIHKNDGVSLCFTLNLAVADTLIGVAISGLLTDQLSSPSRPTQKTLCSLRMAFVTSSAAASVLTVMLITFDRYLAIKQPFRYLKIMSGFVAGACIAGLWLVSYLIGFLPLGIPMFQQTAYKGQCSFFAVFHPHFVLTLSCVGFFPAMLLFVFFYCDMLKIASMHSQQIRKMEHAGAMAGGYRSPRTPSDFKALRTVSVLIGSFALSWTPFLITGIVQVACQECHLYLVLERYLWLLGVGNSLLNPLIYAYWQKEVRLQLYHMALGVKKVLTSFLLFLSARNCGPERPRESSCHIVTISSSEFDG
Description: Oocytes are harvested from Xenopus laevis and injected with mRNA transcripts as previously described (Quick and Lester, 1994; Smith et al., 1997). The test receptor of this invention and Gα subunit RNA transcripts are synthesized using the T7 polymerase (“Message Machine,” Ambion) from linearized plasmids or PCR products containing the complete coding region of the genes. Oocytes are injected with 10 ng synthetic receptor RNA and incubated for 3–8 days at 17 degrees. Three to eight hours prior to recording, oocytes are injected with 500 pg promiscuous Gα subunits mRNA in order to observe coupling to Ca^++ activated Cl^− currents.
Heterologous expression of GPCRs in Xenopus oocytes has been widely used to determine the identity of signaling pathways activated by agonist stimulation (Gundersen et al., 1983; Takahashi et al., 1987). Activation of the phospholipase C (PLC) pathway is assayed by applying a test compound in ND96 solution to oocytes previously injected with mRNA for the SNORF25 receptor and observing inward currents at a holding potential of approximately −80 mV. The appearance of currents that reverse at −25 mV and display other properties of the Ca^++-activated Cl^− channel is indicative of receptor-activation of PLC and release of IP3 and intracellular Ca^++.

SNORF25 receptor = target: T2, SNORF25 receptor (Rattus norvegicus, UniProt Q7TQN8); test: IP release in SNORF25-transfected CHO cells; assay type: cell-based
T2 construct: the entire coding region was amplified from Rin14b cell line cDNA and rat genomic DNA; expressed in transfected cells; host or cells: CHO cells, transient (electroporation)
T2 sequence (Q7TQN8 with tags, fused parts or gaps limits assumed): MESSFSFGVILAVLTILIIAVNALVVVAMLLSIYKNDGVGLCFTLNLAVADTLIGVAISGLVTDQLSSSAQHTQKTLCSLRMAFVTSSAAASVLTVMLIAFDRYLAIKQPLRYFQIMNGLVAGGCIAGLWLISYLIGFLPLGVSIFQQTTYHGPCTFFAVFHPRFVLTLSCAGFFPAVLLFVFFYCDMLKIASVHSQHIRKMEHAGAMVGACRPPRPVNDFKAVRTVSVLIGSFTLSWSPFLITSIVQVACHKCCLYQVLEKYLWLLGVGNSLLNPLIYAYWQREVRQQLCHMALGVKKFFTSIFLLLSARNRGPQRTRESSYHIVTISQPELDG
Description: In a 96 well microplate format assay, cells are plated at a density of 70,000 cells per well and allowed to incubate for 24 hours. The cells are then labeled with 0.5 μCi [^3H]-myo-inositol overnight at 37° C., 5% CO2. Immediately before the assay, the medium is removed and replaced with 90 μL of PBS containing 10 mM LiCl. The plates are then incubated for 15 min at 37° C., 5% CO2. Following the incubation, the cells are challenged with agonist (10 μl/well; 10× concentration) for 30 min at 37° C., 5% CO2. The challenge is terminated by the addition of 100 μL of 50% v/v trichloroacetic acid, followed by incubation at 4° C. for greater than 30 minutes. Total IPs are isolated from the lysate by ion exchange chromatography. Briefly, the lysed contents of the wells are transferred to a Multiscreen HV filter plate (Millipore) containing Dowex AG1-X8 (200–400 mesh, formate form). The filter plates are prepared adding 100 μL of Dowex AG1-X8 suspension (50% v/v, water: resin) to each well. The filter plates are placed on a vacuum manifold to wash or elute the resin bed. Each well is first washed 2 times with 200 μl of 5 mM myo-inositol. Total [^3H]inositol phosphates are eluted with 75 μl of 1.2M ammonium formate/0.1M formic acid solution into 96-well plates. 200 μL of scintillation cocktail is added to each well, and the radioactivity is determined by liquid scintillation counting. […]

## CC1=C(/C=C/C(C)=C/C=C/C(C)=C/C(=O)O)C(C)(C)CCC1 [ATRA, all-trans-retinoic acid]
SNORF25; chimeric G-proteins coupling Gi and Go GPCRs to phospholipase C pathway
  responses in oocytes expressing chimeric G-proteins: not evoked
SNORF25; oocytes lacking CFTR, Gq-mediated phospholipase C pathway
  Cl- currents in oocytes lacking CFTR: did not stimulate Cl^− currents
SNORF25 receptor
  IP release: not IP release
